Columns and labels:
Assay type in all cases: physicochemical
[1] = Photochromic PMMA cast film: initial coloration density, maximum absorption wavelength and fatigue life in xenon fadeometer (Example 9); details: PMMA cast film 0.1 mm; for λmax / Initial color density: xenon light; for Initial color density / T1/2: no stabilizer; for T1/2: time for color density to fall to half of initial value, xenon fadeometer;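 for Initial color density: initial color density is an absorbance value so the % unit is wrong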
Excerpt: The thickness of the cast film was adjusted to 0.1 mm.
(§1) T1/2 is defined as the time required for the color density to decrease to half of its initial value when the film is exposed to the fadeometer.

[2] = Visual color tone of polymerized plate under sunlight (Example 15); details: 0.05 part
Description: (§2) […] The mixed solution was injected into a mold which was made of a glass plate and a gasket formed of an ethylene-vinyl acetate copolymer, and was heated to a temperature of 35° to 90° C. in an air oven over a period of 20 hours for polymerization. After the polymerization was over, the polymer was withdrawn from the glass plate of the mold.
(§3) The resulting polymerized plate was irradiated with sunlight for 10 minutes. On this occasion, a color tone of said plate was visually observed. In this polymerized plate, the fulgide or fulgimide compound and the chromene compound were measured for fatigue life in the same manner as in Example 9. Further, a color tone of the polymerized plate was visually observed in T1/2 (hrs.) of the fulgide or fulgimide compound.

[3] = Fatigue life of fulgide/fulgimide and chromene compound in polymerized methacrylate plate (Example 15); details: 0.05 part
Description: as §2, §3

[4] = Fatigue life of photochromic PMMA cast film with ultraviolet stabilizer, xenon fadeometer (Examples 11-14)
Description: One hundred parts by weight of benzene, 10 parts by weight of poly(methyl methacrylate), 0.2 part […] The solution was cast on a slide glass (11.2×3.7 cm) to form a cast film having a thickness of 0.1 mm.
The fatigue life of photochromic film was measured as in Example 9 by a xenon long-life fadeometer (FAL-25AX-HC made by Suga Testing Instrument Co., Ltd.).
Example 11 was repeated except that the fulgimide compound obtained in Example 2 was used instead of fulgimide compound used in Example 11.
Example 11 was repeated except that the fulgimide or fulgide compounds shown in Table 28 were used instead of the fulgimide compounds in Example 11, and Cyasorb UV1084 was used as the ultraviolet stabilizer.

[5] = Durability of poly(allyl diglycol carbonate) lens impregnated with the compound in silicone oil, as in Example 9 (Example 10); parameters: Initial color density: unit not given here; details: silicone oil impregnation; for Initial color density: 1.0×10^-4 mole/g; for T1/2: xenon fadeometer
Description: as §1
The solution was impregnated in the surface of a lens composed of poly(allyl diglycol carbonate) at 200° C. for 1 hour. The concentration of the solution was adjusted to 1.0×10^-4 mole/g.

[6] = PMMA film, UV stabilizer Cyasorb UV1084, 0.2 part
[7] = PMMA film, UV stabilizer Chimassorb 944, 0.2 part
[8] = PMMA film, UV stabilizer Cyasorb 3346, 0.2 part
[9] = PMMA film, UV stabilizer Irgastab 2002, 0.2 part
[10] = PMMA film, UV stabilizer Rylex NBC, 0.2 part
[11] = PMMA film, UV stabilizer Spinuvex A-36, 0.2 part
[12] = PMMA film, UV stabilizer Tinuvin 144, 0.2 part
[13] = PMMA film, UV stabilizer Tinuvin 622, 0.2 part
[14] = PMMA film, UV stabilizer Tinuvin 765, 0.2 part
[15] = PMMA film, UV stabilizer UV Chek AM101, 0.2 part
[16] = PMMA film, UV stabilizer UV Chek AM105, 0.2 part

| SMILES | λmax [1] | Initial color density [1] | T1/2 [1] | T1/2 [4, 6] | λmax [5] | Initial color density [5] | T1/2 [5] | further results |
| --- | --- | --- | --- | --- | --- | --- | --- | --- |
| CNC(=O)CCC(=O)CCN1C(=O)C2=C(C3CC3SC)c3ccn(C)c3C3(C4CCC3(C)CC4)C2C1=O (stereo not drawn) [(15)] | 613 nm | 0.69% | 65 h |  |  |  |  | Color tone in T0 ([2]; with chromene 5 (0.04 part)): green; Color tone in T1/2 ([2]; with chromene 5 (0.04 part)): light gray; T1/2 of fulgide or fulgimide compound ([3]; with chromene 5 (0.04 part)): 160 h |
| O=C(CCCCN1C(=O)C2=C(C3CC3)c3ccsc3C3(C4CC5CC(C4)CC3C5)C2C1=O)OCCc1ccc2ccccc2c1 (stereo not drawn) [(6)] | 549 nm | 0.72% | 57 h | 210 h |  |  |  |  |
| O=C1OC(=O)C2C1=C(C1CC1)c1c(sc3c1CCCC3)C21C2CCCC1CCC2 (stereo not drawn) [(54)] | 568 nm | 1.09% | 52 h |  | 573 nm | 0.99 | 54 h | Color tone in T0 ([2]; with chromene 2 (0.03 part)): gray; Color tone in T1/2 ([2]; with chromene 2 (0.03 part)): brown; T1/2 of fulgide or fulgimide compound ([3]; with chromene 2 (0.03 part)): 134 h |
| CCCCC1CC1C1=C2C(=O)N(C(C)(C)C#N)C(=O)C2C2(c3c(OC)cc(OC)cc31)C1CCC2(CCCC)CC1 (stereo not drawn) [(17)] | 568 nm | 0.58% | 58 h | 230 h |  |  |  | Color tone in T0 ([2]; with chromene 5 (0.03 part)): gray; Color tone in T1/2 ([2]; with chromene 5 (0.03 part)): gray; T1/2 of fulgide or fulgimide compound ([3]; with chromene 5 (0.03 part)): 146 h |
| O=C1OC(=O)C2C1=C(C1CC1)c1cc(Br)sc1C21C2CC3CC(C2)CC1C3 (stereo not drawn) [(7), 2-bromo-4-cyclopropyl-6,7-dihydridospirobenzo[5,6-b]thiophenedicarboxyanhydride-7,2'-tricyclo[3.1.1^3.7]decane] | 529 nm | 1.21% | 54 h | 220 h |  |  |  |  |
| CC(=O)CN1C(=O)C2=C(C3CC3C)c3cc(-c4ccccc4)sc3C3(C4CCC3CC4)C2C1=O (stereo not drawn) [(10)] | 610 nm | 0.83% | 80 h |  | 615 nm | 0.82 | 85 h | Color tone in T0 ([2]; with chromene 3 (0.08 part)): green; Color tone in T1/2 ([2]; with chromene 3 (0.08 part)): bluish gray; T1/2 of fulgide or fulgimide compound ([3]; with chromene 3 (0.08 part)): 190 h |
| N#CCN1C(=O)C2=C(C3CC3)c3ccsc3C3(C4CCC3CC4)C2C1=O (stereo not drawn) [(2), N-cyanomethyl-4-cyclopropyl-6,7-dihydridospirobenzo[5,6-b]thiophenedicarboxyimido-7,7'-bicyclo[2.2.1]heptane] | 563 nm | 0.78% | 89 h | 350 h | 568 nm | 0.71 | 91 h | T1/2 [4, 7]: 325 h; T1/2 [4, 8]: 385 h; T1/2 ([4]; PMMA film, UV stabilizer Cyasorb UV1084, 0.2 part, listed as Example 2): 355 h; T1/2 [4, 9]: 340 h; T1/2 [4, 10]: 369 h; T1/2 [4, 11]: 346 h; T1/2 [4, 12]: 355 h; T1/2 [4, 13]: 375 h; T1/2 [4, 14]: 373 h; T1/2 [4, 15]: 336 h; T1/2 [4, 16]: 308 h |
| O=C(CN1C(=O)C2=C(C3CC3)c3c(sc4c3CCCC4)C3(C4CC5CC(C4)CC3C5)C2C1=O)NCCCl (stereo not drawn) [(46)] |  | 0.71% | 59 h |  |  |  |  | Color tone in T0 ([2]; with chromene 5 (0.07 part)): amber; Color tone in T1/2 ([2]; with chromene 5 (0.07 part)): amber; T1/2 of fulgide or fulgimide compound ([3]; with chromene 5 (0.07 part)): 148 h |
| CCCC1CC1C1=C2C(=O)N(C(C)C(C)=O)C(=O)C2C2(c3oc(OC)cc31)C1CCCC2CCC1 (stereo not drawn) [(30)] | 569 nm | 0.73% | 78 h |  | 571 nm | 0.68 | 85 h | Color tone in T0 ([2]; with chromene 1 (0.03 part)): gray; Color tone in T1/2 ([2]; with chromene 1 (0.03 part)): gray; T1/2 of fulgide or fulgimide compound ([3]; with chromene 1 (0.03 part)): 186 h |
| CCn1c2c(c3ccccc31)C(C1CC1)=C1C(=O)OC(=O)C1C21C2CC3CC1CC(C)(C3)C2 (stereo not drawn) [(57)] | 559 nm | 1.21% | 55 h | 220 h |  |  |  |  |
| CCOC1CC1C1=C2C(=O)N(C(C#N)CC)C(=O)C2C2(c3sc(OC)c(C)c31)C1CC3CC(C1)CC2C3 (stereo not drawn) [(36)] | 576 nm |  | 88 h |  | 582 nm | 0.77 | 95 h | Color tone in T0 ([2]; with chromene 2 (0.03 part)): gray; Color tone in T1/2 ([2]; with chromene 2 (0.03 part)): gray; T1/2 of fulgide or fulgimide compound ([3]; with chromene 2 (0.03 part)): 206 h |
| COC(=O)CN1C(=O)C2=C(C3CC3)c3ccsc3C3(C4CCC3CC4)C2C1=O (stereo not drawn) [(1), 4-cyclopropyl-6,7-dihydrdo-N-methoxycarbonylmethylspirobenzo[5,6-b]thiophenedicarboxyimido-7,7'-bicyclo[2.2.1]heptane] | 549 nm | 0.85% | 77 h | 310 h | 554 nm | 0.78 | 82 h | T1/2 ([4]; Cyasorb UV1084, amount added 0.002, 1 part per 100 parts fulgimide): 220 h; T1/2 ([4]; Cyasorb UV1084, amount added 0.1, 50 parts per 100 parts fulgimide): 293 h; T1/2 ([4]; Cyasorb UV1084, amount added 0.8, 400 parts per 100 parts fulgimide): 330 h; T1/2 ([4]; Cyasorb UV1084, amount added 20, 10000 parts per 100 parts fulgimide): 367 h; T1/2 [4, 7]: 283 h; T1/2 [4, 8]: 336 h; T1/2 [4, 9]: 299 h; T1/2 [4, 10]: 323 h; T1/2 [4, 11]: 302 h; T1/2 [4, 12]: 310 h; T1/2 [4, 13]: 327 h; T1/2 [4, 14]: 325 h; T1/2 [4, 15]: 295 h; T1/2 [4, 16]: 272 h; T1/2 ([4]; Tinuvin 765, amount added 0.002, 1 part per 100 parts fulgimide): 213 h; T1/2 ([4]; Tinuvin 765, amount added 0.1, 50 parts per 100 parts fulgimide): 307 h; T1/2 ([4]; Tinuvin 765, amount added 0.8, 400 parts per 100 parts fulgimide): 340 h; T1/2 ([4]; Tinuvin 765, amount added 20, 10000 parts per 100 parts fulgimide): 375 h |
| CCOC(=O)OCN1C(=O)C2=C(C3CC3c3ccccc3)c3cc(OCC)sc3C3(C4CC5CC(C)(C4)CC3(C)C5)C2C1=O (stereo not drawn) [(41)] | 557 nm | 0.82% | 65 h | 263 h |  |  |  |  |
| O=C1OC(=O)C2C1=C(C1CC1)c1cc([N+](=O)[O-])sc1C21C2CC3CC(C2)CC1C3 (stereo not drawn) [(59)] | 524 nm | 1.21% | 57 h | 228 h |  |  |  |  |
| O=C1OC(=O)C2C1=C(C1CC1C(F)(F)F)c1sc(Br)cc1C21C2CCC1CC2 (stereo not drawn) [(50)] | 518 nm | 0.90% | 48 h | 200 h |  |  |  |  |
| O=C1OC(=O)C2C1=C(C1CC1)c1c(sc3ccccc13)C21C2CCC1CC2 (stereo not drawn) [(49)] | 564 nm | 1.15% | 58 h | 235 h |  |  |  |  |
| NC1CC1C1=C2C(=O)N(COC(=O)Cc3cccc4ccccc34)C(=O)C2C2(c3c1ccn3-c1ccccc1)C1(O)CCC2(O)CC1 (stereo not drawn) [(21)] | 613 nm | 0.78% | 71 h |  |  |  |  | Color tone in T0 ([2]; with chromene 2 (0.03 part)): green; Color tone in T1/2 ([2]; with chromene 2 (0.03 part)): green; T1/2 of fulgide or fulgimide compound ([3]; with chromene 2 (0.03 part)): 172 h |
| CCC(C(=O)OCCc1ccc2ccccc2c1)N1C(=O)C2=C(C3CC3)c3ccsc3C3(C4CC5CC(C4)CC3C5)C2C1=O (stereo not drawn) [(5)] | 532 nm | 0.69% | 61 h | 244 h |  |  |  |  |
| Cc1cc2c(n1C)C1(C3CC4CC(F)(C3)CC1(F)C4)C1C(=O)N(C3CCC([N+](=O)[O-])CC3)C(=O)C1=C2C1CC1 (stereo not drawn) [(40)] | 532 nm | 0.77% | 71 h | 280 h | 535 nm | 0.70 | 74 h |  |
| CCn1c2c(c3ccccc31)C(C1CC1C(=O)O)=C1C(=O)N(CC(=O)OCCC#N)C(=O)C1C21C2CC3CC(O)(C2)CC1(O)C3 (stereo not drawn) [(44)] | 576 nm | 0.75% | 62 h |  |  |  |  | Color tone in T0 ([2]; with chromene 3 (0.08 part)): gray; Color tone in T1/2 ([2]; with chromene 3 (0.08 part)): gray; T1/2 of fulgide or fulgimide compound ([3]; with chromene 3 (0.08 part)): 154 h |

— patent US5708063A, “Photochromic compound” (Tokuyama Corporation, priority 1993, dated 1998)
